From patent publication US5106856A, “[(Arylalkylpiperidin-4-yl)methyl]-2a,3,4,5-tetrahydro- 1(2H)-acenaphthylen-1-ones and related compounds” (priority 1991, dated 1992)
pIC50: −log10 of the molar value. Where a name gives a salt, the structure may show the parent alone.

Assays:
[1] = target: T1, Brain AChE (acetylcholinesterase, rat striatum) (Rattus norvegicus, UniProt P37136); assay: In vitro inhibition of acetylcholinesterase activity in rat striatum; type: biochemical, rat (male Wistar); conditions: read-out: Inhibitory Concentration, Brain AChE
T1 construct: corpora striata dissected free, weighed and homogenized in 19 volumes; from tissue; host or cells: corpus striatum homogenate of male Wistar rats
T1 sequence (P37136 32-614): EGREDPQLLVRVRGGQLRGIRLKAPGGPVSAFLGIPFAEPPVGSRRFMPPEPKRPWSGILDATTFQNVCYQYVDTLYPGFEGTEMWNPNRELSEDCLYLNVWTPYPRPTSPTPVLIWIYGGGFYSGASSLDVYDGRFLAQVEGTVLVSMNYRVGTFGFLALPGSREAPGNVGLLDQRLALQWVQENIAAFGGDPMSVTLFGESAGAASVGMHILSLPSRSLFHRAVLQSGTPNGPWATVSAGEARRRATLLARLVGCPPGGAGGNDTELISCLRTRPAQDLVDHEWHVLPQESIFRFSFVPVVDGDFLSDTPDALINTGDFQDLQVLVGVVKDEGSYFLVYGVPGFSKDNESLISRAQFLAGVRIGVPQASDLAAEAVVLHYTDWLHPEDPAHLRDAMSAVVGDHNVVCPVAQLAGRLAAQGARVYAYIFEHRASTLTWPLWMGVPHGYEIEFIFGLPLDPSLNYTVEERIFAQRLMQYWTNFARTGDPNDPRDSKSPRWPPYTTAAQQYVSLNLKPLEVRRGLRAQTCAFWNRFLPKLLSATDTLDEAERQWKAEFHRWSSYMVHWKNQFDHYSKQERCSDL
Description: Cholinesterases are found throughout the body, both in the brain and in serum. However, only brain acetylcholinesterase (AChE) distribution is correlated with central cholinergic innervation.
The method described below was used in this invention for assaying cholinesterase activity.
4. A 2 mM stock solution of the test drug is made up in a suitable solvent and q.s. to volume with 0.5 mM DTNB (reagent 3). Drugs are serially diluted (1:10) such that the final concentration (in cuvette) is 10^-4 M and screened for activity. If active, IC50 values are determined from the inhibitory activity of subsequent concentrations.
Male Wistar rats are decapitated, brains rapidly removed, corpora striata dissected free, weighed and homogenized in 19 volumes (approximately 7 mg protein/ml) of 0.05M phosphate buffer, pH 7.2 using a Potter-Elvehjem homogenizer. A 25 microliter aliquot of the homogenate is added to 1.0 milliter vehicle or various concentrations of the test drug and preincubated for 10 minutes at 37° C.
Enzyme activity is measured with the Beckman DU-50 spectrophotometer. This method can be used for IC50 determinations and for measuring kinetic constants.
Substrate concentration is 10 mM diluted 1:2 in assay yielding final concentration of 5 mM. DTNB concentration is 0.5 mM yielding 0.25 mM final concentration. [formula]
IC50 values are calculated from log-probit analysis.

[2] = system: Scopolamine Induced Memory Deficit; assay: Dark Avoidance Assay (reversal of scopolamine induced memory deficit); type: in vivo; conditions: mice, s.c., tested again 24 hours later
Description: In this assay mice are tested for their ability to remember an unpleasant stimulus for a period of 24 hours. A mouse is placed in a chamber that contains a dark compartment; a strong incandescent light drives it to the dark compartment, where an electric shock is administered through metal plates on the floor. The animal is removed from the testing apparatus and tested again, 24 hours later, for the ability to remember the electric shock.
If scopolamine, an anticholinergic that is known to cause memory impairment, is administered before an animal's initial exposure to the test chamber, the animal re-enters the dark compartment shortly after being placed in the test chamber 24 hours later. This effect of scopolamine is blocked by an active test compound, resulting in a greater interval before re-entry into the dark compartment.
The results for an active compound are expressed as the percent of a group of animals in which the effect of scopolamine is blocked, as manifested by an increased interval between being placed in the test chamber and re-entering the dark compartment.
Results of this assay for some of the compounds of this invention and those for tacrine and pilocarpine (reference compounds) are presented in Table 2.

Question: `O=C1c2cccc3c2C(CCC3)C1CC1CCN(Cc2ccccc2)CC1` (stereo not shown) [2-[(N-Benzylpiperidin-4-yl)methyl]-2a,3,4,5-tetrahydro-1(2H)-acenaphthylen-1-one hydrochloride] was tested. Which pIC50 [1] did it give?
Answer: The pIC50 was 5.99.

Question: How did the pIC50 [1] turn out when `O=C1c2cccc3c2C(CCC3)C1CC1CCN(Cc2cccc(F)c2)CC1` (stereo not shown) [2-[[N-(3-Fluorobenzyl)piperidin-4-yl]methyl]-2a,3,4,5-tetrahydro-1(2H)-acenaphthylen-1-one hydrochloride] was run?
Answer: Its pIC50 is 5.39.

Question: And the “% of Animals with Scopolamine Induced Memory Deficit Reversal” value ([2]; 0.1 mg/kg of body weight)?
Answer: Its value is 20%.

Question: `CC[C@@H]1C(=O)OC[C@@H]1Cc1cncn1C` [Pilocarpine, reference compound] was tested. Which “% of Animals with Scopolamine Induced Memory Deficit Reversal” value ([2]; 5 mg/kg of body weight) did it give?
Answer: Its value is 23%.
